Laboratory results taken from patent US20140039044A1, “Hydroxylated Polymethoxyflavone Compositions” (WLLGEN, INC., priority 2006, published 2014).
Read-outs that look alike come from different tables or passages of the source.

Assays:
Type in all cases: cell-based, human
[1] = tested on: COLO205 cells; assay: Apoptotic ratio by propidium iodide flow cytometry (AC50); details: COLO205 cells
Protocol: (§1) The human cancer cells (2×10^5) were cultured in 60-mm Petri dishes and incubated for 24 h. After treated with test compounds for 24 h, the cells were then harvested, washed with PBS resuspended in 200 μL of PBS, and fixed in 800 μL of iced 100% ethanol at −20° C. After being left to stand overnight, the cell pellets were collected by centrifugation, resuspended in 1 mL of hypotonic buffer (0.5% Triton X-100 in PBS and 0.5 μg/mL RNase) and incubated at 37° C. for 30 min. Next, 1 mL of propidium iodide solution (50 μg/mL) was added, and the mixture was allowed to stand on ice for 30 min. Fluorescence emitted from the propidium iodide-DNA complex was quantitated after excitation of the fluorescent dye by FACScan cytometry (Becton Dickinson, San Jose, Calif.).
(§2) 1 N PMF and 6 N PMF compositions containing hydroxylated PMFs, prepared as described in Section 8.3 above, 70% PMF OPE and 5,6,7,8,3′,4′-hexamethoxyflavone (nobiletin) were tested for antiproliferative activity and apoptosis-inducing activity in HL-60, AGS and COLO205 cells as described in Section 8.4 above. Antiproliferative and apoptosis-inducing activities were derived as IC50 values and AC50, values, respectively, where AC50 is the concentration required for 50% apoptosis.
(§3) The PMF compounds were assayed in vitro for cell growth inhibition and for their ability to induce apoptosis in various human cancer cells, including HL-60, AGS, COLO 205, and HT-29 cells, using methods described in Section 8.4 above. Antiproliferative (IC50) and apoptosis-inducing activity (AC50) of PMFs in the HL-60, AGS, COLO 205, and HT-29 cells are reported in Table 9, where *P<0.05, **P<0.01 and ***P<0.001 indicate statistically significant differences from the control group.

[2] = tested on: HL-60 cells; assay: as above; details: HL-60 cells
Protocol: as §1, §2, §3

[3] = tested on: AGS cells; assay: as above; details: AGS cells
Protocol: as §1, §2, §3

[4] = tested on: HT-29 cells; assay: as above; details: read-out: Apoptosis-inducing AC50
Protocol: as §1, §3

[5] = tested on: HT-29 cells; assay: Cell cycle distribution by flow cytometry; details: for Cell Cycle Distribution G0/G1 / Cell Cycle Distribution G2/M / Cell Cycle Distribution S: 24 h; for Cell cycle arrest, in words: 5-100 μM, 24 h exposure
Protocol: as §1
(§4) Compounds A-K were evaluated in terms of their effects in arresting cell cycle progression by observing cell cycle phase distribution in cells treated with the compounds. Cells were treated with 5, 10, 25, 50, and 100 μM of one of compound A-K or DMSO (control) for 24 h and subjected to flow cytometric analysis after staining their DNA, as described above.
Similar cell cycle phase distribution studies were performed in AGS, COLO205, and HT-29 cells in response to individual PMFs, with results reported in Tables 11, 12 and 13, respectively.

[6] = tested on: HL-60 cells; assay: Cell cycle distribution by flow cytometry; details: 24 h; for Cell cycle arrest, in words: 25-100 μM
Protocol: as §1
The effects of the hydrolyzed PMF-enriched compositions, nobiletin and 70% PMF OPE on cell cycle distribution were studied, following the procedures described in Section 8.4. Results for cell cycle distribution in HL-60 cells, COLO205 cells and AGS cells are provided in Table 5, Table 6 and Table 7, respectively. […] In HL-60 cells, G2/M arrest predominated in cells treated with 6N PMF concentrations ≧5 μM and with 1N PMF concentrations ≧25 μM.
as §4

[7] = Homo sapiens, COLO 205, read-out: Apoptosis-inducing AC50
[8] = Homo sapiens, Table 4, read-out: Apoptosis-inducing AC50 (concentration required for 50% apoptosis)
[9] = Homo sapiens, read-out: Apoptosis-inducing AC50
[10] = read-out: Apoptosis-inducing AC50

## COc1ccc(-c2cc(=O)c3c(OC)c(OC)c(OC)c(OC)c3o2)cc1OC [Compound A, 5,6,7,8,3′,4′-hexamethoxyflavone, reference compound]
[1]; Homo sapiens, COLO 205, Table 4, read-out: Apoptosis-inducing AC50 (concentration required for 50% apoptosis)
  AC50: > 100 µg/mL
[1]; [7]
  AC50: > 100 µM
[2]; [8]
  AC50: > 100 µg/mL
[2]; [9]
  AC50: > 100 µM
[3]; [8]
  AC50: > 100 µg/mL
[3]; [9]
  AC50: > 100 µM
[4]; Homo sapiens
  AC50: > 100 µM
[5]; 5 μM
  Cell Cycle Distribution G0/G1: 63.67 ± 0.14
  Cell Cycle Distribution G2/M: 8.22 ± 0.37
  Cell Cycle Distribution S: 28.12 ± 0.52
[5]; 10 μM
  Cell Cycle Distribution G0/G1: 66.57 ± 0.66
  Cell Cycle Distribution G2/M: 7.45 ± 0.28
  Cell Cycle Distribution S: 26.98 ± 0.94
[5]; 25 μM
  Cell Cycle Distribution G0/G1: 69.67 ± 1.15
  Cell Cycle Distribution G2/M: 7.58 ± 0.00
  Cell Cycle Distribution S: 22.76 ± 1.15
[5]; 50 μM
  Cell Cycle Distribution G0/G1: 83.26 ± 0.46
  Cell Cycle Distribution G2/M: 4.97 ± 0.67
  Cell Cycle Distribution S: 11.79 ± 1.13
[5]; 100 μM
  Cell Cycle Distribution G0/G1: 89.49 ± 0.57
  Cell Cycle Distribution G2/M: 5.60 ± 0.57
  Cell Cycle Distribution S: 4.92 ± 0.00
[5]
  Cell cycle arrest, in words: significant accumulation of cells in G1 phase
[6]; 5 μM, Table 5
  Cell Cycle Distribution G0/G1: 45.81 ± 0.16
  Cell Cycle Distribution G2/M: 0.02 ± 0.01
  Cell Cycle Distribution S: 54.29 ± 0.01
[6]; 5 μM, Table 10
  Cell Cycle Distribution G0/G1: 41.42 ± 0.14
  Cell Cycle Distribution G2/M: 8.15 ± 0.49
  Cell Cycle Distribution S: 50.73 ± 0.42
[6]; 10 μM, Table 5
  Cell Cycle Distribution G0/G1: 53.84 ± 0.45
  Cell Cycle Distribution G2/M: 5.73 ± 1.50
  Cell Cycle Distribution S: 40.44 ± 1.06
[6]; 10 μM, Table 10
  Cell Cycle Distribution G0/G1: 50.36 ± 1.06
  Cell Cycle Distribution G2/M: 2.75 ± 0.57
  Cell Cycle Distribution S: 46.88 ± 0.28
[6]; 25 μM, Table 5
  Cell Cycle Distribution G0/G1: 61.96 ± 3.55
  Cell Cycle Distribution G2/M: 5.93 ± 0.49
  Cell Cycle Distribution S: 32.12 ± 4.04
[6]; 25 μM, Table 10
  Cell Cycle Distribution G0/G1: 66.18 ± 0.71
  Cell Cycle Distribution G2/M: 2.77 ± 0.85
  Cell Cycle Distribution S: 31.06 ± 0.99
[6]; 50 μM, Table 5
  Cell Cycle Distribution G0/G1: 62.37 ± 1.85
  Cell Cycle Distribution G2/M: 6.44 ± 0.08
  Cell Cycle Distribution S: 31.20 ± 1.76
[6]; 50 μM, Table 10
  Cell Cycle Distribution G0/G1: 64.40 ± 0.49
  Cell Cycle Distribution G2/M: 7.67 ± 0.57
  Cell Cycle Distribution S: 27.93 ± 0.35
[6]; 100 μM, Table 5
  Cell Cycle Distribution G0/G1: 65.00 ± 3.41
  Cell Cycle Distribution G2/M: 4.18 ± 0.33
  Cell Cycle Distribution S: 30.81 ± 3.08
[6]; 100 μM, Table 10
  Cell Cycle Distribution G0/G1: 62.05 ± 0.14
  Cell Cycle Distribution G2/M: 7.35 ± 0.14
  Cell Cycle Distribution S: 30.60 ± 0.35
[6]
  Cell cycle arrest, in words: significant G1 arrest

## COc1ccc(-c2oc3c(OC)c(OC)c(OC)c(OC)c3c(=O)c2OC)cc1OC [D, 3,5,6,7,8,3,4-heptamethoxyflavone, reference compound]
[1]; [10]
  AC50: > 100 µM
[2]; [10]
  AC50: > 100 µM
[3]; [10]
  AC50: > 100 µM
[4]
  AC50: > 100 µM
[5]; 5 μM
  Cell Cycle Distribution G0/G1: 67.79 ± 0.17
  Cell Cycle Distribution G2/M: 7.56 ± 0.23
  Cell Cycle Distribution S: 24.66 ± 0.06
[5]; 10 μM
  Cell Cycle Distribution G0/G1: 57.61 ± 0.69
  Cell Cycle Distribution G2/M: 10.41 ± 0.45
  Cell Cycle Distribution S: 30.98 ± 1.18
[5]; 25 μM
  Cell Cycle Distribution G0/G1: 76.11 ± 1.56
  Cell Cycle Distribution G2/M: 9.04 ± 2.77
  Cell Cycle Distribution S: 14.89 ± 1.21
[5]; 50 μM
  Cell Cycle Distribution G0/G1: 77.31 ± 2.82
  Cell Cycle Distribution G2/M: 12.21 ± 0.74
  Cell Cycle Distribution S: 20.49 ± 2.09
[5]; 100 μM
  Cell Cycle Distribution G0/G1: 80.66 ± 0.01
  Cell Cycle Distribution G2/M: 3.79 ± 0.43
  Cell Cycle Distribution S: 15.57 ± 0.43
[5]
  Cell cycle arrest, in words: significant accumulation of cells in G1 phase
[6]; 5 μM, Table 10
  Cell Cycle Distribution G0/G1: 50.66 ± 1.20
  Cell Cycle Distribution G2/M: 4.88 ± 0.49
  Cell Cycle Distribution S: 44.46 ± 0.49
[6]; 10 μM, Table 10
  Cell Cycle Distribution G0/G1: 52.79 ± 0.99
  Cell Cycle Distribution G2/M: 5.09 ± 0.35
  Cell Cycle Distribution S: 42.12 ± 0.49
[6]; 25 μM, Table 10
  Cell Cycle Distribution G0/G1: 57.63 ± 0.14
  Cell Cycle Distribution G2/M: 0.09 ± 0.71
  Cell Cycle Distribution S: 42.28 ± 0.57
[6]; 50 μM, Table 10
  Cell Cycle Distribution G0/G1: 80.79 ± 0.71
  Cell Cycle Distribution G2/M: 0.21 ± 0.42
  Cell Cycle Distribution S: 19.00 ± 0.78
[6]; 100 μM, Table 10
  Cell Cycle Distribution G0/G1: 84.06 ± 0.57
  Cell Cycle Distribution G2/M: 0.47 ± 0.21
  Cell Cycle Distribution S: 15.47 ± 1.06
[6]
  Cell cycle arrest, in words: significant G1 arrest

## COc1ccc(-c2cc(=O)c3c(O)c(OC)c(OC)c(OC)c3o2)cc1OC [J, 5-hydroxy-6,7,8,3′,4′-pentamethoxyflavone]
[1]; [7]
  AC50: > 100 µM
[2]; [9]
  AC50: > 100 µM
[3]; [9]
  AC50: > 100 µM
[4]; Homo sapiens
  AC50: > 100 µM
[5]; 5 μM
  Cell Cycle Distribution G0/G1: 64.81 ± 0.41
  Cell Cycle Distribution G2/M: 9.52 ± 0.05
  Cell Cycle Distribution S: 25.68 ± 0.46
[5]; 10 μM
  Cell Cycle Distribution G0/G1: 62.87 ± 0.40
  Cell Cycle Distribution G2/M: 9.02 ± 0.16
  Cell Cycle Distribution S: 28.11 ± 0.57
[5]; 25 μM
  Cell Cycle Distribution G0/G1: 62.04 ± 1.24
  Cell Cycle Distribution G2/M: 8.46 ± 0.09
  Cell Cycle Distribution S: 29.51 ± 1.15
[5]; 50 μM
  Cell Cycle Distribution G0/G1: 60.39 ± 0.28
  Cell Cycle Distribution G2/M: 9.93 ± 0.06
  Cell Cycle Distribution S: 29.55 ± 0.52
[5]; 100 μM
  Cell Cycle Distribution G0/G1: 62.44 ± 1.00
  Cell Cycle Distribution G2/M: 7.89 ± 0.69
  Cell Cycle Distribution S: 29.67 ± 1.68
[6]; 5 μM, Table 10
  Cell Cycle Distribution G0/G1: 53.10 ± 0.46
  Cell Cycle Distribution G2/M: 7.94 ± 0.06
  Cell Cycle Distribution S: 38.96 ± 0.51
[6]; 10 μM, Table 10
  Cell Cycle Distribution G0/G1: 51.74 ± 1.57
  Cell Cycle Distribution G2/M: 9.06 ± 0.54
  Cell Cycle Distribution S: 39.20 ± 2.10
[6]; 25 μM, Table 10
  Cell Cycle Distribution G0/G1: 51.30 ± 1.68
  Cell Cycle Distribution G2/M: 8.20 ± 1.19
  Cell Cycle Distribution S: 40.50 ± 2.87
[6]; 50 μM, Table 10
  Cell Cycle Distribution G0/G1: 49.22 ± 0.13
  Cell Cycle Distribution G2/M: 7.93 ± 0.36
  Cell Cycle Distribution S: 42.86 ± 0.48
[6]; 100 μM, Table 10
  Cell Cycle Distribution G0/G1: 51.29 ± 0.74
  Cell Cycle Distribution G2/M: 7.45 ± 0.83
  Cell Cycle Distribution S: 41.27 ± 0.09
